Measured values reported in patent publication US20210278408A1, “METHODS OF TREATMENT OF CANCER WITH SUBSTITUTED PYRROLE AND PYRAZOLE COMPOUNDS AND DIAGNOSIS OF CANCERS SUSCEPTIBLE TO TREATMENT WITH SUBSTITUTED PYRROLE AND PYRAZOLE COMPOUNDS” (Bantam Pharmaceutical, LLC, priority 2018, published 2021).
Like-named read-outs stand apart in the source and are kept apart here.

System: 407 cancer cell lines
Test: Cell viability of cancer cell lines (IC50), CellTiter-Glo Viability Assay, 96 h
Format: cell-based
Conditions: for IC50: read-out: Absolute IC50
Protocol: Viability was determined by using the 50% inhibitory concentration (IC50) as determined with the CellTiter-Glo® Viability Assay (Promega).
Experiments were initiated by first thawing and equilibrating the CellTiter-Glo® Buffer to room temperature. The lyophilized CellTiter-Glo® Substrate was also equilibrated to room temperature. The lyophilized substrate was reconstituted with the CellTiter-Glo® buffer to form the CellTiter-Glo® Reagent.
Cells were harvested during the logarithmic growth period, counted, and the cell concentration adjusted to 4.44×10^4 cells/mL using culture medium.
Cells were allowed to grow overnight and the following day, the TO reading was obtained by adding 10 μL culture medium to each well of Plate A. The plate was allowed to equilibrate at room temperature for thirty minutes, after which 50 μL CellTiter-Glo® reagent was added to each well. The contents were mixed for 5 min on an orbital shaker to induce cell lysis. Plates were incubated for 20 minutes to stabilize the luminescent signal and the TO luminescence recorded.
Test plate B was incubated for 96 h in the humidified incubator at 37° C. with 5% CO2.
Following the incubation, the plate was equilibrated at room temperature for thirty minutes. CellTiter-Glo® (50 μL) was added to each well of the plate and contents mixed for five minutes on an orbital shaker to induce cell lysis. The luminescent signal was allowed to stabilize at room temperature for 20 minutes and the luminescence recorded.
IC50 (EC50) was calculated using a dose-response curve, fitted using a nonlinear regression model with a sigmoidal dose response. Survival rate was calculated using the formula:
The Surviving rate (%)=(LumTest article−LumMedium control)/(LumNon-treated−LumMedium control)×100%.
Absolute IC50 (EC50) was calculated according to the dose-response curve generated by the statistical software (GraphPad Prism 5.0).

Structure (SMILES): N.N.[Cl][Pt][Cl] [Cisplatin, reference compound]
- IC50 (HCT-15): 3260 nM
- IC50 (HCT-116): 4030 nM
- % inhibition at top conc. (HEC-1-A cells, 96 h): 83.97%
- IC50 (HEC-1-A cells, 96 h): 13300 nM
- IC50 (HEC-1-B cells, 96 h): 10600 nM
- IC50 (HEL 92.1.7): 480 nM
- IC50 (HGC-27 cells, 96 h): 770 nM
- IC50 (HL-60): 1150 nM
- IC50 (HLE cells, 96 h): 2480 nM
- IC50 (HM-7, 96 h): 6260 nM
- IC50 (HPAC): 14300 nM
- IC50 (HT-3 cells, 96 h): 4850 nM
- IC50 (HT-29): 2890 nM
- IC50 (HT-55): 17700 nM
- IC50 (HT-1080, 96 h): 3530 nM
- IC50 (HT-1376): 3280 nM
- IC50 (HeLa 229 cells, 96 h): 7250 nM
- IC50 (HeLa cells, 96 h): 280 nM
- IC50 (Hep3B): 3080 nM
- IC50 (Hep G2/C3A, 96 h): 1840 nM
- IC50 (Hep G2): 4510 nM
- IC50 (HuCCT1, 96 h): 10000 nM
- IC50 (HuT 78): 500 nM
- IC50 (IHH-4 cells, 96 h): 2650 nM
- IC50 (IM95m cells, 96 h): 8430 nM
- IC50 (IMR-32 cells, 96 h): 60 nM
- IC50 (Ishikawa, 96 h): 2750 nM
- IC50 (J82 cells, 96 h): 310 nM
- IC50 (JAR): 610 nM
- IC50 (JEG-3 cells, 96 h): 520 nM
- IC50 (JHH-1 cells, 96 h): 6040 nM
- IC50 (JHH-4 cells, 96 h): 1070 nM
- IC50 (JHH-5 cells, 96 h): 850 nM
- IC50 (JHH-7 cells, 96 h): 1830 nM
- IC50 (JIMT-1 cells, 96 h): 6960 nM
- IC50 (JJN-3 cells, 96 h): 4080 nM
- IC50 (JVM-2): 1460 nM
- IC50 (JVM-3): 1120 nM
- IC50 (JVM-13): 540 nM
- IC50 (JeKo-1 cells, 96 h): 1360 nM
- IC50 (Jurkat clone E6-1): 470 nM
- IC50 (K-562): 5730 nM
- IC50 (KARPAS-299 cells, 96 h): 890 nM
- IC50 (KARPAS-422): 1110 nM
- % inhibition at top conc. (KATO III, 96 h): 67.05%
- IC50 (KATO III, 96 h): 10500 nM
- IC50 (KG-1): 2020 nM
- IC50 (KHOS/NP cells, 96 h): 1330 nM
- IC50 (KMH-2 cells, 96 h): 2650 nM
- IC50 (KMS-11): 2160 nM
- IC50 (KP4 cells, 96 h): 6250 nM
- IC50 (KPL-4): 1370 nM
- IC50 (KYSE-70): 6110 nM
- IC50 (KYSE-150): 1790 nM
- IC50 (KYSE-270): 2150 nM
- IC50 (KYSE-410 cells, 96 h): 13400 nM
- IC50 (Kasumi-1): 2920 nM
- IC50 (L-82): 1160 nM
- IC50 (L-363): 1830 nM
- IC50 (LN-18 cells, 96 h): 700 nM
- IC50 (LN-229 cells, 96 h): 7680 nM
- IC50 (LNCaP clone FGC, 96 h): 3430 nM
- IC50 (LP-1): 7620 nM
- IC50 (LS123 cells, 96 h): 12000 nM
- IC50 (LS 180): 6270 nM
- IC50 (LS411N): 15100 nM
- IC50 (LS513 cells, 96 h): 2810 nM
- IC50 (LS1034 cells, 96 h): 6520 nM
- IC50 (Li-7): 630 nM
- IC50 (LoVo): 8270 nM
- IC50 (M059K cells, 96 h): 2660 nM
- IC50 (MC/CAR cells, 96 h): 3150 nM
- IC50 (MCF7): 11800 nM
- IC50 (MDA-MB-231): 23000 nM
- IC50 (MDA-MB-415): 37900 nM
- IC50 (MDA-MB-436, 96 h): 500 nM
- IC50 (MDA-MB-453): 4860 nM
- IC50 (MDA-MB-468 cells, 96 h): 270 nM
- IC50 (ME-180 cells, 96 h): 840 nM
- IC50 (MEG-01): 1900 nM
- IC50 (MES-SA cells, 96 h): 660 nM
- IC50 (MES-SA/DX5 cells, 96 h): 2770 nM
- IC50 (MFE-296 cells, 96 h): 3310 nM
- % inhibition at top conc. (MHCC97-H): 83.30%
- IC50 (MHCC97-H): 7890 nM
- IC50 (MIA PaCa-2): 2740 nM
- IC50 (MKN1 cells, 96 h): 1460 nM
- IC50 (MKN45, 96 h): 5470 nM
- % inhibition at top conc. (MKN74 cells, 96 h): 84.20%
- IC50 (MKN74 cells, 96 h): 11200 nM
- IC50 (ML-2): 1210 nM
- IC50 (MM.1R): 810 nM
- IC50 (MM.1S): 1020 nM
- IC50 (MOLM-13 cells, 96 h): 780 nM
- IC50 (MOLM-16 cells, 96 h): 870 nM
- IC50 (MOLP8 cells, 96 h): 1750 nM
- IC50 (MS751 cells, 96 h): 4610 nM
